For this experiment, the system named is L1210 leukemia ip in BDF1 mice, survival T/C. The experiment is described as follows: NCI In Vivo Anticancer Drug Screen. Data for tumor model L1210 Leukemia (intraperitoneal) in B6D2F1 (BDF1) mice. The conditions noted are these: endpoint: mean survival time, higher = longer survival. In a few lines: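 Antitumor effect is assessed in tumor-bearing animals. Survival in the compound arm is compared with a vehicle-dosed control arm and expressed as their quotient.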

[1] abbreviates: dose: 100.0 mg/kg/injection, schedule: Q04DX003 (ip), vehicle: Klucel (hydroxypropylcellulose) (HPC).

“And” between values parts separate entries of the source, which are not always exact repeats. Equal entries are not always repeated. Inconclusive results and toxic doses are left out. Peptide text beside a SMILES is read from it. * marks the point of attachment. Boc = CC(C)(C)OC(=O)*; Bn = c1ccc(C*)cc1

Consider `CCN(CC)CC(C)Nc1ccc([N+](=O)[O-])c2sc3ccccc3c(=O)c12` (stereo not given), for which the T/C is 122 % of control (dose: 9.0 mg/kg/injection, schedule: Q01DX Z (ip), vehicle: carboxymethylcellulose (CMC)); 107 % of control (dose: 10.0 mg/kg/injection, schedule: Q01DX Z (ip), vehicle: other); 108 % of control and 112 % of control (dose: 12.0 mg/kg/injection, schedule: Q01DX Z (ip), vehicle: methylcellulose (MC)); 108 % of control (dose: 17.7 mg/kg/injection, schedule: Q01DX Z (ip), vehicle: carboxymethylcellulose (CMC)); 110 % of control and 114 % of control (dose: 18.0 mg/kg/injection, schedule: Q01DX Z (ip), vehicle: methylcellulose (MC)); 122 % of control (dose: 26.0 mg/kg/injection, schedule: Q01DX Z (ip), vehicle: carboxymethylcellulose (CMC)). Also, the T/C by setting is: (dose: 27.0 mg/kg/injection, schedule: Q01DX Z (ip), vehicle: carboxymethylcellulose (CMC)) 122 % of control; (dose: 40.0 mg/kg/injection, schedule: Q01DX Z (ip), vehicle: carboxymethylcellulose (CMC)) 175 % of control; (dose: 41.0 mg/kg/injection, schedule: Q01DX Z (ip), vehicle: carboxymethylcellulose (CMC)) 169 % of control; (dose: 80.0 mg/kg/injection, schedule: Q01DX Z (ip), vehicle: carboxymethylcellulose (CMC)) 170 % of control; (dose: 90.0 mg/kg/injection, schedule: Q01DX Z (ip), vehicle: other) 171 % of control; (dose: 250.0 mg/kg/injection, schedule: Q## X000 (other), vehicle: carboxymethylcellulose (CMC)) 158 % of control. In addition, the T/C (dose: 270.0 mg/kg/injection, schedule: Q01DX Z (ip), vehicle: other) was 97 % of control.

As for `O=C1CCNc2cc(Cl)ccc21`, the T/C was 96 % of control (dose: 100.0 mg/kg/injection, schedule: Q01DX001 (ip), vehicle: Klucel (hydroxypropylcellulose) (HPC)); 98 % of control (dose: 100.0 mg/kg/injection, schedule: Q01DX009 (ip), vehicle: Klucel (hydroxypropylcellulose) (HPC)); 95 % of control (dose: 200.0 mg/kg/injection, schedule: Q01DX001 (ip), vehicle: Klucel (hydroxypropylcellulose) (HPC)); 95 % of control (dose: 200.0 mg/kg/injection, schedule: Q01DX009 (ip), vehicle: Klucel (hydroxypropylcellulose) (HPC)); 104 % of control (dose: 400.0 mg/kg/injection, schedule: Q01DX001 (ip), vehicle: Klucel (hydroxypropylcellulose) (HPC)).

Take `C#CC(C)(C)OCC(O)CCl` (stereo not given): the T/C is, setting by setting: (dose: 100.0 mg/kg/injection, schedule: Q01DX009 (ip), vehicle: saline) 96 % of control; (dose: 100.0 mg/kg/injection, schedule: Q04DX003 (ip), vehicle: saline sonified) 114 % of control; (dose: 200.0 mg/kg/injection, schedule: Q01DX009 (ip), vehicle: saline) 89 % of control; (dose: 200.0 mg/kg/injection, schedule: Q04DX003 (ip), vehicle: saline sonified) 109 % of control; (dose: 400.0 mg/kg/injection, schedule: Q04DX003 (ip), vehicle: saline sonified) 109 % of control.

In the case of `CC(C)(C)S(=O)CCO` (stereo not given), the T/C was 109 % of control (dose: 100.0 mg/kg/injection, schedule: Q04DX002 (ip), vehicle: saline); 103 % of control (dose: 200.0 mg/kg/injection, schedule: Q04DX002 (ip), vehicle: saline); 103 % of control (dose: 400.0 mg/kg/injection, schedule: Q04DX002 (ip), vehicle: saline).

In the case of `COc1ccc(OCC(=O)N2CCCCC2)cc1`, the T/C is 92 % of control (dose: 100.0 mg/kg/injection, schedule: Q01DX009 (ip), vehicle: carboxymethylcellulose (CMC)) and 106 % of control (dose: 200.0 mg/kg/injection, schedule: Q01DX009 (ip), vehicle: carboxymethylcellulose (CMC)).

On to `Cc1ccc(C(=O)/C(Cl)=N/O)cc1`, for which the T/C was 96 % of control (dose: 50.0 mg/kg/injection, schedule: Q01DX001 (ip), vehicle: other) and 104 % of control (dose: 100.0 mg/kg/injection, schedule: Q01DX001 (ip), vehicle: other).

For the compound `O=C1OC2C3c4ccccc4C(c4c3ccc3ccccc43)C2O1` (stereo not given), the T/C runs as follows: under setting [1], 103 % of control; (dose: 200.0 mg/kg/injection, schedule: Q04DX003 (ip), vehicle: Klucel (hydroxypropylcellulose) (HPC)) 95 % of control; (dose: 400.0 mg/kg/injection, schedule: Q04DX003 (ip), vehicle: Klucel (hydroxypropylcellulose) (HPC)) 95 % of control.

As for `O=[N+]([O-])c1ccc(S(=O)(=O)OCc2ccccc2OS(=O)(=O)c2ccc([N+](=O)[O-])cc2)cc1`, the T/C (dose: 25.0 mg/kg/injection, schedule: Q01DX009 (ip), vehicle: saline sonified) is 103 % of control; the T/C (dose: 50.0 mg/kg/injection, schedule: Q01DX009 (ip), vehicle: saline sonified) was 95 % of control; the T/C (dose: 100.0 mg/kg/injection, schedule: Q01DX009 (ip), vehicle: saline sonified) is 100 % of control; the T/C under setting [1] is 91 % of control.

For the compound `COC(=O)CNC(=O)C(Cc1ccc(OCc2ccccc2)cc1)NC(=O)C(CO)NC(=O)OC(C)(C)C` (stereo not drawn) (Boc-Ser-Tyr(Bn)-Gly-OMe; configuration not given here), the T/C was 102 % of control (dose: 100.0 mg/kg/injection, schedule: Q01DX009 (ip), vehicle: saline with Tween-80); 98 % of control (dose: 200.0 mg/kg/injection, schedule: Q01DX009 (ip), vehicle: saline with Tween-80); 88 % of control (dose: 400.0 mg/kg/injection, schedule: Q01DX009 (ip), vehicle: saline with Tween-80).

`CCOC(=O)CC(C(=O)OCC)N1CCCCC1` (stereo not given): the T/C was 92 % of control (dose: 100.0 mg/kg/injection, schedule: Q01DX001 (ip), vehicle: saline); 95 % of control (dose: 100.0 mg/kg/injection, schedule: Q01DX009 (ip), vehicle: alcohol); 100 % of control (dose: 100.0 mg/kg/injection, schedule: Q04DX003 (ip), vehicle: alcohol); 91 % of control (dose: 200.0 mg/kg/injection, schedule: Q01DX001 (ip), vehicle: saline); 95 % of control (dose: 200.0 mg/kg/injection, schedule: Q01DX009 (ip), vehicle: alcohol); 95 % of control (dose: 200.0 mg/kg/injection, schedule: Q04DX003 (ip), vehicle: alcohol). Also, the T/C is 94 % of control (dose: 400.0 mg/kg/injection, schedule: Q01DX001 (ip), vehicle: saline); 105 % of control (dose: 400.0 mg/kg/injection, schedule: Q01DX009 (ip), vehicle: alcohol); 97 % of control (dose: 400.0 mg/kg/injection, schedule: Q04DX003 (ip), vehicle: alcohol).

As for `CNC(=O)NNC(=O)CNC(=O)Nc1cccc(C(F)(F)F)c1`, the T/C was 94 % of control (dose: 12.5 mg/kg/injection, schedule: Q01DX009 (ip), vehicle: Klucel (hydroxypropylcellulose) (HPC)); 102 % of control (dose: 25.0 mg/kg/injection, schedule: Q01DX009 (ip), vehicle: Klucel (hydroxypropylcellulose) (HPC)); 98 % of control (dose: 50.0 mg/kg/injection, schedule: Q01DX009 (ip), vehicle: Klucel (hydroxypropylcellulose) (HPC)).

`CC(C)(C)CC(C)(C)c1ccc(O)cc1`: the T/C is 95 % of control (dose: 62.5 mg/kg/injection, schedule: Q01DX Z (ip), vehicle: saline); 94 % of control (dose: 100.0 mg/kg/injection, schedule: Q01DX001 (ip), vehicle: carboxymethylcellulose (CMC)); 101 % of control (dose: 125.0 mg/kg/injection, schedule: Q01DX Z (ip), vehicle: saline); 100 % of control (dose: 200.0 mg/kg/injection, schedule: Q01DX001 (ip), vehicle: carboxymethylcellulose (CMC)); 90 % of control (dose: 250.0 mg/kg/injection, schedule: Q01DX Z (ip), vehicle: saline); 100 % of control (dose: 400.0 mg/kg/injection, schedule: Q01DX001 (ip), vehicle: carboxymethylcellulose (CMC)). In addition, the T/C (dose: 500.0 mg/kg/injection, schedule: Q01DX Z (ip), vehicle: saline) is 100 % of control.

As for `COC(=O)C(NC(=O)c1ccccc1)C(C)(C)SCc1ccccc1` (stereo not given), the T/C runs as follows: (dose: 100.0 mg/kg/injection, schedule: Q04DX003 (ip), vehicle: other) 92 % of control; (dose: 200.0 mg/kg/injection, schedule: Q04DX003 (ip), vehicle: other) 96 % of control; (dose: 400.0 mg/kg/injection, schedule: Q04DX003 (ip), vehicle: other) 92 % of control.

As for `CCCC(O)C1CCCCC1O` (stereo not given), the T/C reads like this: (dose: 100.0 mg/kg/injection, schedule: Q04DX003 (ip), vehicle: saline with Tween-80) 113 % of control; (dose: 200.0 mg/kg/injection, schedule: Q04DX003 (ip), vehicle: saline with Tween-80) 100 % of control; (dose: 400.0 mg/kg/injection, schedule: Q04DX003 (ip), vehicle: saline with Tween-80) 103 % of control.

Source of the values: PubChem BioAssay AID248 (DTP/NCI, 2004).
